Tests used:
Format in all cases: in vivo
Alopecurus myosuroides [1] = assay: Pre-emergence herbicidal effect; conditions: 80 g/ha, visual score after 3 weeks vs untreated controls
Text: (§1) Seeds of monocotyledonous and dicotyledonous weed plants and crop plants are laid out in sandy loam soil in wood-fiber pots and covered with soil. The compounds of the invention, formulated in the form of wettable powders (WP) or as emulsion concentrates (EC), are then applied to the surface of the covering soil as aqueous suspension or emulsion at a water application rate equating to 600 to 800 L/ha with addition of 0.2% wetting agent. After the treatment, the pots are placed in a greenhouse and kept under good growth conditions for the trial plants. The damage to the test plants is scored visually after a test period of 3 weeks by comparison with untreated controls (herbicidal activity in percent (%): 100% activity=the plants have died, 0% activity=like control plants).

Avena fatua = assay: Pre-emergence herbicidal effect; conditions: 80 g/ha, visual score after 3 weeks vs untreated controls
Text: as §1

Digitaria sanguinalis [2] = assay: Pre-emergence herbicidal effect; conditions: 80 g/ha, visual score after 3 weeks vs untreated controls
Text: as §1

Echinochloa crus-galli [3] = assay: Pre-emergence herbicidal effect; conditions: 80 g/ha, visual score after 3 weeks vs untreated controls
Text: as §1

Lolium rigidum [4] = assay: Pre-emergence herbicidal effect; conditions: 80 g/ha, visual score after 3 weeks vs untreated controls
Text: as §1

Setaria viridis [5] = assay: Pre-emergence herbicidal effect; conditions: 80 g/ha, visual score after 3 weeks vs untreated controls
Text: as §1

Alopecurus myosuroides [6] = assay: Post-emergence herbicidal effect; conditions: 80 g/ha, post-emergence at one-leaf stage, visual score after about 3 weeks
Procedure: (§2) Seeds of monocotyledonous and dicotyledonous weed and crop plants are laid out in sandyloam soil in wood-fiber pots, covered with soil and cultivated in a greenhouse under good growth conditions. 2 to 3 weeks after sowing, the test plants are treated at the one-leaf stage. The compounds of the invention, formulated in the form of wettable powders (WP) or as emulsion concentrates (EC), are then sprayed onto the green parts of the plants as aqueous suspension or emulsion at a water application rate equating to 600 to 800 l/ha with addition of 0.2% wetting agent. After the test plants have been left to stand in the greenhouse under optimal growth conditions for about 3 weeks, the action of the preparations is assessed visually in comparison to untreated controls (herbicidal action in percent (%): 100% activity=the plants have died, 0% activity=like control plants).

Digitaria sanguinalis [7] = assay: Post-emergence herbicidal effect; conditions: 80 g/ha, post-emergence at one-leaf stage, visual score after about 3 weeks
Procedure: as §2

Echinochloa crus-galli [8] = assay: Post-emergence herbicidal effect; conditions: 80 g/ha, post-emergence at one-leaf stage, visual score after about 3 weeks
Procedure: as §2

Hordeum murinum = assay: Post-emergence herbicidal effect; conditions: 80 g/ha, post-emergence at one-leaf stage, visual score after about 3 weeks
Procedure: as §2

Lolium rigidum [9] = assay: Post-emergence herbicidal effect; conditions: 80 g/ha, post-emergence at one-leaf stage, visual score after about 3 weeks
Procedure: as §2

Setaria viridis [10] = assay: Post-emergence herbicidal effect; conditions: 80 g/ha, post-emergence at one-leaf stage, visual score after about 3 weeks
Procedure: as §2

Structure (SMILES)	Pre-emergence action ALOMY (herbicidal activity in percent) (Alopecurus myosuroides [1]) [%]	Pre-emergence action AVEFA (herbicidal activity in percent) (Avena fatua) [%]	Pre-emergence action DIGSA (herbicidal activity in percent) (Digitaria sanguinalis [2]) [%]	Pre-emergence action ECHCG (herbicidal activity in percent) (Echinochloa crus-galli [3]) [%]	Pre-emergence action LOLRI (herbicidal activity in percent) (Lolium rigidum [4]) [%]	Pre-emergence action SETVI (herbicidal activity in percent) (Setaria viridis [5]) [%]	Post-emergence action against ALOMY (herbicidal action in percent) (Alopecurus myosuroides [6]) [%]	Post-emergence action against DIGSA (herbicidal action in percent) (Digitaria sanguinalis [7]) [%]	Post-emergence action against ECHCG (herbicidal action in percent) (Echinochloa crus-galli [8]) [%]	Post-emergence action against HORMU (herbicidal action in percent) (Hordeum murinum) [%]	Post-emergence action against LOLRI (herbicidal action in percent) (Lolium rigidum [9]) [%]	Post-emergence action against SETVI (herbicidal action in percent) (Setaria viridis [10]) [%]
CC#Cc1cc(Br)c(C2=C(O)C3(CCC4(CC3)OCCO4)NC2=O)c(OC)c1 [Example 1.2.03]	100	100	100	100	100	100	90	100	100	100	100	100
C=CCOC1CCC2(CC1)NC(=O)C(c1c(Br)cc(C#CC)cc1OC)=C2O (stereo not drawn) [Example 1.3.01]	100	100	100	90	100	100	100	100	100	100	100	100
C=CCOC1CCC2(CC1)NC(=O)C(c1c(Br)cc(C#CC)cc1OC)=C2OC(=O)C(C)C (stereo not drawn) [Example 1.3.04]	90	90	100	100	100	100	90	100	100	100	100	100
